# Laboratory results as given in patent US4740499A, “Method of enhancing the bioactivity of atrial peptides” (Monsanto Company, priority 1986, dated 1988).
# Tested on: rabbit kidney brush border membranes (RBBM)
# Assay: physchem
# Format: biochemical
# Settings: 20 μg RBBM, 100 nM inhibitor, 60 min, 25° C.
# Description: The kelatorphan was prepared according to the method described for compound 13 by Fournie-Saluski et al., J. Med. Chem. 28, 1158-1169 (1985). The following procedure was performed at 4° C. Rabbit kidneys were obtained fresh and were perfused with buffer A (containing 5 mM Tris, pH 7.5, 0.25 M sucrose, 3 mM MgCl2 and 1 mM EDTA) to remove the blood. (EDTA=ethylenediaminetetraacetic acid.) The kidneys were minced, homogenized in 5 volumes of ice-cold buffer A with a Brinkmann Polytron homogenizer and filtered through two layers of cheesecloth. The filtrate was centrifuged at 5,000×g for 20 min, the pellet was discarded and the supernatant was centrifuged at 15,000×g for 20 min. The supernatant was retained and then centrifuged at 100,000×g for 90 min. The pellet was resuspended in 50 mM Tris, pH 7.5, and the suspension was centrifuged at 100,000×g for 90 min. The washed pellet was resuspended in 50 mM Tris, pH 7.5, to give a final protein concentration of 4 mg/ml using the protein assay of Bradford, Anal. Biochem. 72, 248-254 (1976). The membrane preparation was assayed for aminopeptidase and alkaline phosphatase activities which are the marker enzymes for the kidney brush border. See Inui et al., Biochim. Biophys. Acta 647, 150-154 (1981). The final membrane preparation was enriched 8-fold in alkaline phosphatase activity, and 11-fold in aminopeptidase activity, compared to the homogenate. Renal brush border membranes (10-20 μg) were preincubated for 15 min at 25° C. in a solution containing the inhibitor and 50 mM Tris, pH 7.5. […] Incubations were for 60 min at 25° C. and were terminated by removing the membranes by filtration using Gelman GA-6 filters. The filtrates were immediately frozen on dry ice and were stable for 1 week when stored at -80° C. Samples containing the peptide degradation products were resolved by C18 reversed phase high pressure liquid chromatography (HPLC). The frozen samples were thawed immediately before injection onto a Vydac C18 column (4.6 mm I.D.×25 cm; 5 micron/300 Å) equilibrated with water containing 0.05% trifluoracetic acid (TFA). Peptide fragments and starting material were separated on a linear gradient of 0-35% acetonitrile also containing 0.05% TFA. Both the gradient and the flow rate (1 ml/min) were maintained by a Waters HPLC system consisting of two Model 510 pumps connected to an Automated Gradient Controller. Column effluent was monitored at 220 nm by a Waters Model 481 spectrophotometer, and the amount of atrial peptide material and peptide fragments were measured via a Hewlett-Packard Model […] integrator. […] Therefore, in those cases where the N-terminal serine was removed, the total amount of biologically active material remaining at the end of the incubation was taken as the % starting material remaining plus % des […] -AP-I or des […] -AP-III (as appropriate), as calculated from the peak areas of the individual peptides on HPLC.
smiles,measurement,setting,value
"O=C(O)CNC(=O)C(CS)Cc1ccccc1 (racemic) [thiorphan, N-(DL-2-benzyl-3-mercapto-propionyl)glycine]",Peak area as % Initial AP: AP,(c) 40 μM AP-I,27.3%
same,Peak area as % Initial AP: AP + des Ser^1 -AP,(c) 40 μM AP-I,87.9%
same,Peak area as % Initial AP: des Ser^1 -AP,(c) 40 μM AP-I,60.6%
same,Peak area as % Initial AP: AP,(c) 40 μM AP-III,38.1%
same,Peak area as % Initial AP: AP + des Ser^1 -AP,(c) 40 μM AP-III,86.1%
same,Peak area as % Initial AP: des Ser^1 -AP,(c) 40 μM AP-III,48.0%
same,Peak area as % Initial AP: AP,(c) 40 μM SLRR(Met^8)AP-III,86.5%
same,Peak area as % Initial AP: AP + des Ser^1 -AP,(c) 40 μM SLRR(Met^8)AP-III,86.5%
same,Peak area as % Initial AP: des Ser^1 -AP,(c) 40 μM SLRR(Met^8)AP-III,0%
